The text below walks through data of US10947188B2, “Small molecule ferroptosis inducers” (THE TRUSTEES OF COLUMBIA UNIVERSITY IN THE CITY OF NEW YORK, priority 2016, dated 2021).

Converted amounts (≈) assume the structure as drawn. Where only a bound is given, the exact number is not on record here.

One assay has as its system HT-1080 cells. Nature of the assay: Lethality of commercially available CIL41/70 structural analogs. It counts as cell-based. The following applies: Homo sapiens, tested once in technical triplicates. As for the experimental part:
1,000 cells per 36 μl were seeded in each well in 384-well plates. Lethal compounds were dissolved, and a twofold, 12-point dilution series was prepared in DMSO. Compound solutions were further diluted with media at 1:25, and 4 μl per well of the diluted solutions was added to cell cultures immediately after cells were seeded. […] When other cell-death-modulating compounds (100 nM sodium selenite, 1 μM cerivastatin, 100 μg/mL mevalonic acid) were used in cotreatments, they were supplemented to cell culture for 24 h before lethal compounds were added to cell culture, after which cells were further incubated for 24 h at 37° C. under 5% CO2. On the day of the viability measurement, we added 10 μl per well of 50% Alamar Blue diluted in media (Life Technologies) and further incubated the cells at 37° C. for 6 h. Fluorescence intensity (excitation/emission: 530/590) was measured with a Victor 3 plate reader (PerkinElmer), and the normalized viability was calculated as VL=(IL−I0)/(IV−I0), where VL, I0, IV, and IL are the normalized viability and the raw fluorescence intensities from the wells containing media, cells treated with a vehicle (negative control), and cells with the lethal compound (L), respectively. When the effect of a chemical modulator (M) on L was calculated, we instead used the equation VL|M=(IM,L−I0)/(IM,V−I0), where VL|M, IM,L and IM,V are the normalized viability, and fluorescence intensity from cells treated with […], respectively. The viability was typically measured in biological triplicate unless otherwise specified. A representative dose-response curve, the mean and standard error of normalized viability from one replicate were plotted. HT-1080 viability after modulator treatments corresponding to FIG. 3C and FIGS. 5E-5F is available in FIGS. 19A-19C.
Their lethality was tested once in HT-1080 cells in technical triplicates.
`COc1ccccc1C/C(N)=N/OC(=O)COc1cc(C)cc(C)c1C` [CB126] yielded an EC50 of 9.3 µg/mL (≈ 26.1 µM).

With `N/C(Cc1ccc(Cl)cc1Cl)=N\OC(=O)Cc1ccccc1` [CB127], the half-maximal effective concentration (EC50) was above 20 µg/mL. Still for that read-out and setting: for `N/C(Cc1ccc(Cl)cc1Cl)=N\OC(=O)CC1CCCCC1` [CB128] the value was above 20 µg/mL. The same measure, in the same setting: for `CCc1ccc(OCC(=O)O/N=C(\N)Cc2ccc([N+](=O)[O-])cc2)c(Br)c1` [CB129] the value was above 20 µg/mL; for `CC(C)c1ccc(OCC(=O)O/N=C(\N)Cc2ccc([N+](=O)[O-])cc2)c(Br)c1` [CB130], above 20 µg/mL. For the compound `N/C(Cc1cccc2ccccc12)=N\OC(=O)CSc1ccccc1` [CB131], the EC50 was above 20 µg/mL. Still for that read-out and setting: next, `Cc1ccc(CC(=O)O/N=C(\N)Cc2cccc3ccccc23)cc1` [CB132]: above 20 µg/mL; `N/C(Cc1ccc(Cl)cc1Cl)=N\OC(=O)CSc1ccccc1` [CB133]: above 20 µg/mL. Consider `CC(Oc1cccc(Cl)c1)C(=O)O/N=C(\N)Cc1cccc2ccccc12` (centres unmarked) [CB134], for which the concentration for a half-maximal effect (EC50) was above 20 µg/mL. Compound `N/C(Cc1ccc([N+](=O)[O-])cc1)=N\OC(=O)CCCOc1ccccc1` [CB135] came in with an EC50 above 20 µg/mL. Still for that read-out and setting: next, `CCC(Oc1ccccc1)C(=O)O/N=C(\N)Cc1ccc([N+](=O)[O-])cc1` (centres unmarked) [CB136]: above 20 µg/mL; `CC(Oc1cccc(Cl)c1)C(=O)O/N=C(\N)Cc1ccc(Cl)cc1Cl` (centres unmarked) [CB137]: above 20 µg/mL; `N/C(Cc1ccc(Cl)cc1Cl)=N\OC(=O)CCCOc1ccccc1` [CB138]: above 20 µg/mL. `Cc1ccc(CC(=O)O/N=C(\N)Cc2ccc([N+](=O)[O-])cc2)cc1` [CB139] returned an EC50 above 20 µg/mL.

For `CCC(Oc1ccccc1)C(=O)O/N=C(\N)Cc1ccc(Cl)cc1Cl` (centres unmarked) [CB140], the half-maximal effective concentration (EC50) is 8.56 µg/mL (≈ 22.5 µM). On the same count and under the same terms, next, `N/C(Cc1ccc([N+](=O)[O-])cc1)=N\OC(=O)CSc1ccccc1` [CB141]: above 20 µg/mL; `Cc1ccc(CC(=O)O/N=C(\N)Cc2ccc(Cl)cc2Cl)cc1` [CB142]: above 20 µg/mL; `COc1ccc(CC(=O)O/N=C(\N)Cc2ccc(Cl)c(Cl)c2)cc1OC` [CB143]: above 20 µg/mL. Regarding `N/C(Cc1ccc([N+](=O)[O-])cc1)=N\OC(=O)COc1ccc(Cl)cc1Br` [CB144], the EC50 is above 20 µg/mL. On the same count and under the same terms, for `CC(=O)O/N=C(N)\C(=N/Nc1ccccc1)[N+](=O)[O-]` [CB145] the value was above 20 µg/mL; for `CC(=O)O/N=C(/N)Cn1nc(C)c([N+](=O)[O-])c1C` [CB146], above 20 µg/mL; for `Cc1nn(C/C(N)=N/OC(=O)C23CC4CC(CC(C4)C2)C3)c(C)c1[N+](=O)[O-]` [CB147], 4.88 µg/mL (≈ 13 µM). Same read-out and setting: for `CCC(=O)O/N=C(\N)Cn1nc(C)c([N+](=O)[O-])c1C` [CB148] the value was above 20 µg/mL; for `Cc1ccc(Cl)cc1N1CCN(C/C(N)=N/OC(=O)CCC(=O)NC2CCCCC2)CC1` [CD1], above 20 µg/mL. Still for that read-out and setting: next, `COc1ccc(/C=C(\C#N)C(=O)O/N=C2\CCCCCN2)cc1` [EN1]: above 20 µg/mL; `COc1ccc(/C=C/C(=O)O/N=C2\CCCCCN2)cc1OC` [EN2]: 10.5 µg/mL (≈ 33 µM); `O=C(O/N=C1\CCCCCN1)C(Cl)Cl` [EN3]: above 20 µg/mL. `CC(Cl)(Cl)C(=O)O/N=C1\CCCCCN1` [EN4] registered a half-maximal effective concentration (EC50) above 20 µg/mL. The same measure, in the same setting: for `Cc1ccccc1NC(=O)C/C(N)=N/OC(=O)C1CCCN1C(=O)c1ccco1` (centres unmarked) [EN5] the value was above 20 µg/mL; for `N/C(=N\OC(=O)C1CCCN1C(=O)c1cccs1)C(c1ccccc1)c1ccccc1` (centres unmarked) [EN6], above 20 µg/mL. Still for that read-out and setting: next, `N/C(COc1ccccc1)=N\OC(=O)C1CCCN1C(=O)c1ccco1` (centres unmarked) [EN7]: above 20 µg/mL; `N/C(=N\OC(=O)Cc1ccccc1F)C12CC3CC(CC(C3)C1)C2` [EN8]: above 20 µg/mL; `N/C(CC(=O)NC1CCCCC1)=N\OC(=O)C1CCCN1C(=O)c1cccs1` (centres unmarked) [EN9]: above 20 µg/mL. The same measure, in the same setting: next, `Cc1cccc(NC(=O)C/C(N)=N/OC(=O)C2CCCN2C(=O)c2ccco2)c1C` (centres unmarked) [EN10]: above 20 µg/mL; `Cc1cc(C)cc(C(=O)NCC(=O)O/N=C(\N)CC(=O)Nc2ccc(Cl)cc2)c1` [EN11]: above 20 µg/mL; `NC(/C=C/c1cc(C(F)(F)F)cc(C(F)(F)F)c1)=N\OC(=O)/C=C/c1ccccc1` [MB1]: above 20 µg/mL. Compound `CC(=O)O/N=C(\N)Cc1csc2ccc(Cl)cc12` [MB5] registered a half-maximal effective concentration (EC50) above 20 µg/mL. On to `CC(C)(C)C(=O)O/N=C(\N)Cc1ccc(-c2csnn2)cc1` [MB6], for which the EC50 worked out at 6.48 µg/mL (≈ 20.4 µM). On the same count and under the same terms, for `N/C(Cc1ccc(-c2csnn2)cc1)=N\OC(=O)C1CC1` [MB7] the value was above 20 µg/mL; for `CC(=O)O/N=C(\N)Cc1ccc(-c2csnn2)cc1` [MB8], above 20 µg/mL; for `CC(C)(C)CC(=O)O/N=C(\N)C1(c2ccc(Cl)cc2Cl)CC1` [MB9], above 20 µg/mL. `CC(=O)O/N=C(\N)COc1ccc(-c2nnco2)cc1` [MB10] had an EC50 above 20 µg/mL. Same read-out and setting: next, `CC(C)(C)C(=O)O/N=C(\N)COc1ccc(Cl)cc1Cl` [MB11]: above 20 µg/mL; `CCC(=O)O/N=C(\N)COc1ccc(Cl)cc1Cl` [MB12]: above 20 µg/mL; `CC(C)(C)C(=O)O/N=C(\N)Cc1cccc2ccccc12` [MB13]: above 20 µg/mL. On the same count and under the same terms, for `CC(C)(C)C(=O)O/N=C(\N)COc1ccc(C(C)(C)C)cc1` [MB14] the value was 2.6 µg/mL (≈ 8.49 µM). Consider `CC(C)(C)C(=O)O/N=C(\N)CS(=O)(=O)c1ccc(Cl)cc1` [MB15], for which the EC50 is above 20 µg/mL. Still for that read-out and setting: next, `N/C(COc1cccc(Cl)c1)=N\OC(=O)CCn1cc(C(F)(F)F)ccc1=O` [MB16]: above 20 µg/mL. Still for that read-out and setting: next, `Cc1ccc(OC/C(N)=N/OC(=O)CCn2cc(C(F)(F)F)ccc2=O)cc1` [MB17]: above 20 µg/mL; `N/C(Cc1ccc(Cl)cc1)=N\OC(=O)C(c1ccccc1)c1ccccc1` [VM1]: 2 µg/mL (≈ 5.28 µM); `N/C(Cc1ccc(Cl)cc1Cl)=N\OC(=O)Cc1ccc(Cl)cc1` [VM2]: above 20 µg/mL. `N/C(Cc1ccc(Cl)cc1Cl)=N\OC(=O)/C=C/c1ccccc1Cl` [VM3] showed an EC50 of 8.51 µg/mL (≈ 22.2 µM). The compound `N/C(Cc1cccc2ccccc12)=N\OC(=O)CCc1ccccc1` [VM4] gave an EC50 above 20 µg/mL. On the same count and under the same terms, next, `N/C(Cc1ccc([N+](=O)[O-])cc1)=N\OC(=O)CCc1ccccc1` [VM5]: above 20 µg/mL; `Cc1nn(C/C(N)=N/OC(=O)C2CCCCC2)c(C)c1Br` [ZE1]: above 20 µg/mL; `Cc1nn(C/C(N)=N/OC(=O)CC23CC4CC(CC(C4)C2)C3)c(C)c1Br` [ZE2]: 15.6 µg/mL (≈ 36.9 µM).

Consider `COc1ccc(CC(=O)O/N=C(\N)Cn2nc(C(F)(F)F)cc2C)cc1` [ZE3], for which the EC50 is above 20 µg/mL. Compound `Cc1nn(C/C(N)=N/OC(=O)C(C)C)c(C)c1[N+](=O)[O-]` [ZE4] showed an EC50 above 20 µg/mL. The same measure, in the same setting: next, `COc1ccc(CC(=O)O/N=C(/N)Cn2nc(C)c([N+](=O)[O-])c2C)cc1` [ZE5]: above 20 µg/mL; `CCC(=O)O/N=C(/N)Cn1nc(C(F)(F)F)cc1C` [ZE6]: above 20 µg/mL; `COc1ccc(CC(=O)O/N=C(/N)Cn2nc(C)c(Br)c2C)cc1` [ZE7]: above 20 µg/mL.

Compound `Cc1cc(C(F)(F)F)nn1C/C(N)=N/OC(=O)CC12CC3CC(CC(C3)C1)C2` [ZE8] had a concentration giving a half-maximal response (EC50) above 20 µg/mL.

Compound `Cc1nn(C/C(N)=N/OC(=O)Cn2nc(C(F)(F)F)cc2C2CC2)c(C)c1[N+](=O)[O-]` [ZE9] yielded an EC50 above 20 µg/mL.

Take `Cc1cc(C(F)(F)F)nn1C/C(N)=N/OC(=O)CC1CC2CCC1C2` (centres unmarked) [ZE10]: the EC50 is above 20 µg/mL.

On to `N/C(Cn1c(C(F)(F)F)nc2ccccc21)=N\OC(=O)CC1CC2CCC1C2` (centres unmarked) [ZE11], for which the concentration for a half-maximal effect (EC50) is above 20 µg/mL. As to `CC1=C(Br)C(C)N(C/C(N)=N/OC(=O)CC2CC3CCC2C3)N1` (centres unmarked) [ZE12], the half-maximal effective concentration (EC50) was above 20 µg/mL. On the same count and under the same terms, for `Cc1cccc(OCC(=O)O/N=C(/N)Cn2nc(C)c([N+](=O)[O-])c2C)c1` [ZE13] the value was above 20 µg/mL; for `Cc1nn(C/C(N)=N\OC(=O)COc2cc(Cl)ccc2Cl)c(C)c1[N+](=O)[O-]` [ZE14], above 20 µg/mL; for `Cc1cc(C(F)(F)F)nn1C/C(N)=N/OC(=O)C1CCCCC1` [ZE15], above 20 µg/mL. In turn, `N/C(Cc1ccc(Cl)cc1)=N\OC(=O)Cc1ccccc1` [ZE16] returned a 50% effective concentration (EC50) above 20 µg/mL. `CC(=O)O/N=C(N)/C(N)=N/OC(C)=O` [ZE17]: the concentration giving a half-maximal response (EC50) is above 20 µg/mL.

Staying with this assay, now noted: tested once in technical triplicates.
For the compound `COc1ccc(OCC(N)=NOC(=O)CON=C(C)c2ccc(Cl)cc2)cc1` [MB2], the “EC50 of CIL41/70 and structural analogs (lethality)” value is “MB2 (>20 ug/mL)”. The same measure, in the same setting: for `CC(=NOCC(=O)ON=C(N)COc1cccc(Cl)c1)c1ccc(Cl)cc1` [MB3] the value was “MB3 (>20 ug/mL)”; for `CC(=NOCC(=O)ON=C(N)COc1ccc(Cl)cc1Cl)c1ccc(Cl)cc1` [MB4], “MB4 (>20 ug/mL)”.
